“Also recorded” adds a separate entry of the source.
Experiments:
AceCS2 = assay: Acetyl-CoA synthetase activity of purified AceCS2; type: biochemical, human; conditions: hyperacetylated AceCS2 from nicotinamide-treated E. coli vs untreated
Protocol: E. coli DH5α bacteria (Invitrogen) transformed, e.g., with either pTrcHis2C-SIRT3(102-399), pTrcHis2C-SIRT3-H248Y(102-399), pTrcHis2C-SIRT5(12-310), pTrcHis2C-SIRT5(39-310) or pTrcHis2C-AceCS2(38-689) were grown to an A600 nm=0.4, and induced with 0.5 mM isopropyl-β-D-thiogalactopyranoside (IPTG) at 25° C. for 16 h. 6×His-tagged proteins were purified under native conditions at 4° C. using Ni-NTA agarose (Qiagen, Valencia, Calif.). […]
The activity of purified AceCS2 was measured as described (Jones & Lipmann, 1955, in Methods in Enzymology (Academic Press, Vol. 1, pp. 585-591; Barak et al., 2004, J Mol Biol 342:383-401). Each reaction (0.5 mL) contained 100 mM hydroxylamine (pre-neutralized with KOH), 50 mM Tris-HCl (pH 8.0), 20 mM potassium acetate, 10 mM MgCl2, 10 mM ATP, 2 mM DTT and 1 mM CoA. All chemicals (Sigma) were of the highest purity available. Reactions were pre-incubated at 35° C. for 5 min before the addition of purified AceCS2 (6 μg). After 30 min of incubation, 0.5 mL stop solution (10% (w/v) FeCl3, 3.3% (w/v) trichloroacetic acid in 2 N HCl) were added and reactions were incubated on ice for 2 min. The samples were centrifuged for 2 min at 16,200×g to remove turbidity and the generated color was measured at 540 nm. […]

bacterial sirtuins = target: T1, bacterial sirtuins (Escherichia coli, UniProt P75960); assay: Expression of recombinant human AceCS2 in nicotinamide-treated E. coli, acetyl-lysine immunoblot; type: cell-based
T1 construct: endogenous in cells; host or cells: E. coli DH5alpha (Invitrogen)
Protocol: E. coli DH5α bacteria (Invitrogen) transformed, e.g., with either pTrcHis2C-SIRT3(102-399), pTrcHis2C-SIRT3-H248Y(102-399), pTrcHis2C-SIRT5(12-310), pTrcHis2C-SIRT5(39-310) or pTrcHis2C-AceCS2(38-689) were grown to an A600 nm=0.4, and induced with 0.5 mM isopropyl-β-D-thiogalactopyranoside (IPTG) at 25° C. for 16 h. 6×His-tagged proteins were purified under native conditions at 4° C. using Ni-NTA agarose (Qiagen, Valencia, Calif.). Purified proteins were dialyzed (e.g., against sirtuin storage buffer […], 4 mM MgCl2, 50 mM NaCl, 0.5 mM DTT, 5% glycerol (v/v) or AceCS2 storage buffer [50 mM Tris-HCl (pH 8.0), 4 mM MgCl2, 10% glycerol (v/v)], adjusted to 0.5 g/L and stored frozen at −80° C. To induce acetylation of recombinant AceCS2, nicotinamide (50 mM) was added during protein expression (16 h, 25° C.).
Immunoblots were developed with enhanced chemiluminescence (Amersham Pharmacia Biosciences) or West SuperSignal reagent (Pierce). Membranes were either nitrocellulose or polyvinylidene fluoride (PVDF) (Immun-Blot; Bio-Rad Laboratories).

T1 sequence (P75960 whole entry): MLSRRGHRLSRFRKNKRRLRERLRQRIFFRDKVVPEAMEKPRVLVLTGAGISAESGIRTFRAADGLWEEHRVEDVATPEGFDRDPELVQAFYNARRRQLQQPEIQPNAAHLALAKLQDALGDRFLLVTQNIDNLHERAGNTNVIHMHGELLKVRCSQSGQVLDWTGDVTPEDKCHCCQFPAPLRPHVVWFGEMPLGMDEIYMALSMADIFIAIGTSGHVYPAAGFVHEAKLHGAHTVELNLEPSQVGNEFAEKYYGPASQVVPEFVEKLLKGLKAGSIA

Question: Which “specific activity of AceCS2 purified from bacteria treated or not with nicotinamide” value (AceCS2) does the source give for NC(=O)c1cccnc1 [nicotinamide] here?
Answer: significantly lower specific activity

Question: What about the “acetylation of mutant AceCS2 protein carrying an arginine residue in position 642” value (bacterial sirtuins; E. coli treated with nicotinamide during expression, AceCS2-K642R) of the same molecule?
Answer: did not induce acetylation

Question: What about the “acetylation of recombinant human AceCS2 (Lys642)” value (bacterial sirtuins; wild-type E. coli treated with nicotinamide (50 mM) during protein expression, 16 h, 25° C., AceCS2 wild type) of the same molecule?
Answer: hyperacetylation of recombinant human AceCS2; also recorded: significantly increased its levels of acetylation

From US8518635B2, “Regulation of protein activity by reversible acetylation” (The J. David Gladstone Institutes, priority 2006, dated 2013)
